Test results as given in patent publication EP3717657B1, “A SYSTEM FOR ASSESSING MICROBIAL SUSCEPTIBILITY TO ANTIBIOTIC AGENTS” (Ascilion AB, priority 2017, dated 2019).

Tests used:
[1] = test system: Staphylococcus aureus (ATCC 29213); test: Antibiotic susceptibility by glucose consumption in culture medium, blood culture bottle inoculum (Example 1); format: cell-based; settings: for Glucose concentration t=0: 0 minutes; for Glucose concentration t=60: 60 minutes; for Glucose concentration t=120: 120 minutes; for Glucose concentration t=180: 180 minutes; for Glucose concentration t=240: 240 minutes; for dC/dT: rate of change in glucose concentration;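 on dC/dT: rate calculated between the 60 and 180 min readings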
In short: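 Bacteria grown in blood culture bottles until positive, diluted 1:100 into cation-adjusted Mueller-Hinton broth with glucose at 1.0 mg/mL plus antibiotic (µg/mL). Glucose read by glucometer at 0–240 min.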

E. coli ATCC 25922 [2] = test: Qualitative susceptibility by glucose consumption, directly from positive BC-bottles (Example 2, Table 7); format: cell-based
[3] = test system: Staphylococcus aureus ATCC 29213; settings: S.aureus, cited from earlier work
S. aureus = test: Qualitative susceptibility by glucose consumption, bacteria from plated cultures (Example 2, Table 6); format: cell-based
Description: If the susceptibility score is a qualitative susceptibility score classifying the microorganism as "susceptible", or "non-susceptible" to an antibiotic agent the answer could be given in as little as 1 hour.
(§1) Bacteria from plated cultures were suspended in cation adjusted Mueller-Hinton broth (SVA, Uppsala, Sweden) supplemented with glucose. Consequently, the concentration of microorgansims was typically two orders of magnitude higher as compared to Example 1. […] The tested microorganisms was one strain of E. faecium, two strains of E.coli and one S. aureus. Table 6. "--" denotes no measurement

[4] = test system: Escherichia coli ATCC 25922; settings: E.coli, cited from earlier work
[5] = test system: Enterococcus faecalis ATCC 29212; settings: E.faecalis, cited from earlier work
E. faecium [6] = test: Qualitative susceptibility by glucose consumption, directly from positive BC-bottles (Example 2, Table 7); format: cell-based
Description: With slightly lower microbe concentrations e.g. directly from positive BC-bottles (^~10^9 CFU/ml) the results are shown at least within 2 hours, where E. coli ATCC 25922 is classified as susceptible and E. faecium is non-susceptible. Table 7. "--" denotes no measurement

E. coli ATCC 25922 [7] = test: Qualitative susceptibility by glucose consumption, bacteria from plated cultures (Example 2, Table 6); format: cell-based
Description: as §1, with “If the susceptibility score is a qualitative susceptibility score classifying the microorganism as "susceptible", or "non-susceptible" to an antibiotic agent the answer could be given in as little as 1 hour. Bacteria” for “Bacteria”

E. coli 17 = test: as above; format: cell-based
Description: as §1, with “If the susceptibility score is a qualitative susceptibility score classifying the microorganism as "susceptible", or "non-susceptible" to an antibiotic agent the answer could be given in as little as 1 hour. Bacteria” for “Bacteria”

E. faecium [8] = test: as above; format: cell-based
Description: as §1, with “If the susceptibility score is a qualitative susceptibility score classifying the microorganism as "susceptible", or "non-susceptible" to an antibiotic agent the answer could be given in as little as 1 hour. Bacteria” for “Bacteria”

[9] = range obtained by EUCAST from ISO 20776-1: 2006
[10] = reference MIC value, EUCAST QC tables Version 7.0, 2017

Gentamicin
MIC Measured ([1]; S.aureus, 80% threshold of rate of change vs reference, between 60 and 180 minutes, obtained in 4 hours): 0.25 µg/mL | F=the rate of change in glucose concentration in relation to the reference ([1]; [Ab] 0,5 µg/mL): 57% | Glucose concentration t=0 ([1]; [Ab] 0,5 µg/mL): 143 | Glucose concentration t=60 ([1]; [Ab] 0,5 µg/mL): 154 | Glucose concentration t=120 ([1]; [Ab] 0,5 µg/mL): 137 | Glucose concentration t=180 ([1]; [Ab] 0,5 µg/mL): 116 | Glucose concentration t=240 ([1]; [Ab] 0,5 µg/mL): 78 | dC/dT ([1]; [Ab] 0,5 µg/mL): 19 | F=the rate of change in glucose concentration in relation to the reference ([1]; [Ab] 0,25 µg/mL): 66% | Glucose concentration t=0 ([1]; [Ab] 0,25 µg/mL): 143 | Glucose concentration t=60 ([1]; [Ab] 0,25 µg/mL): 146 | Glucose concentration t=120 ([1]; [Ab] 0,25 µg/mL): 140 | Glucose concentration t=180 ([1]; [Ab] 0,25 µg/mL): 102 | Glucose concentration t=240 ([1]; [Ab] 0,25 µg/mL): 55 | dC/dT ([1]; [Ab] 0,25 µg/mL): 22 | F=the rate of change in glucose concentration in relation to the reference ([1]; [Ab] 1 µg/mL): 30% | Glucose concentration t=0 ([1]; [Ab] 1 µg/mL): 137 | Glucose concentration t=60 ([1]; [Ab] 1 µg/mL): 154 | Glucose concentration t=120 ([1]; [Ab] 1 µg/mL): 146 | Glucose concentration t=180 ([1]; [Ab] 1 µg/mL): 134 | Glucose concentration t=240 ([1]; [Ab] 1 µg/mL): 119 | dC/dT ([1]; [Ab] 1 µg/mL): 10 | F=the rate of change in glucose concentration in relation to the reference ([1]; [Ab] 2 µg/mL): 12% | Glucose concentration t=0 ([1]; [Ab] 2 µg/mL): 144 | Glucose concentration t=60 ([1]; [Ab] 2 µg/mL): 154 | Glucose concentration t=180 ([1]; [Ab] 2 µg/mL): 146 | Glucose concentration t=240 ([1]; [Ab] 2 µg/mL): 148 | dC/dT ([1]; [Ab] 2 µg/mL): 4 | F=the rate of change in glucose concentration in relation to the reference ([1]; [Ab] 4 µg/mL): 10% | Glucose concentration t=60 ([1]; [Ab] 4 µg/mL): 157 | Glucose concentration t=120 ([1]; [Ab] 4 µg/mL): 147 | Glucose concentration t=180 ([1]; [Ab] 4 µg/mL): 150 | Glucose concentration t=240 ([1]; [Ab] 4 µg/mL): 149 | dC/dT ([1]; [Ab] 4 µg/mL): 4 | F=the rate of change in glucose concentration in relation to the reference ([1]; [Ab] 8 µg/mL): 0% | Glucose concentration t=0 ([1]; [Ab] 8 µg/mL): 142 | Glucose concentration t=60 ([1]; [Ab] 8 µg/mL): 154 | Glucose concentration t=120 ([1]; [Ab] 8 µg/mL): 150 | Glucose concentration t=180 ([1]; [Ab] 8 µg/mL): 154 | Glucose concentration t=240 ([1]; [Ab] 8 µg/mL): 140 | dC/dT ([1]; [Ab] 8 µg/mL): 0 | F=the rate of change in glucose concentration in relation to the reference ([1]; [Ab] 16 µg/mL): 0% | Glucose concentration t=0 ([1]; [Ab] 16 µg/mL): 139 | Glucose concentration t=60 ([1]; [Ab] 16 µg/mL): 145 | Glucose concentration t=120 ([1]; [Ab] 16 µg/mL): 150 | Glucose concentration t=180 ([1]; [Ab] 16 µg/mL): 145 | Glucose concentration t=240 ([1]; [Ab] 16 µg/mL): 145 | dC/dT ([1]; [Ab] 16 µg/mL): 0 | F=the rate of change in glucose concentration in relation to the reference ([1]; [Ab] 32 µg/mL): 3% | Glucose concentration t=0 ([1]; [Ab] 32 µg/mL): 144 | Glucose concentration t=60 ([1]; [Ab] 32 µg/mL): 148 | Glucose concentration t=120 ([1]; [Ab] 32 µg/mL): 145 | Glucose concentration t=180 ([1]; [Ab] 32 µg/mL): 146 | Glucose concentration t=240 ([1]; [Ab] 32 µg/mL): 145 | dC/dT ([1]; [Ab] 32 µg/mL): 1 | Qualitative susceptibility score (E. coli ATCC 25922 [2]; E. coli ATCC 25922, 256 µg/mL, from positive BC-bottles, within 2 hours, Table 7): susceptible | Glucose concentration t=0 (E. coli ATCC 25922 [2]; [Ab] 256 µg/mL, t=0): 145 | Glucose concentration t=45 (E. coli ATCC 25922 [2]; [Ab] 256 µg/mL, t=45): 155 | Glucose concentration t=60 (E. coli ATCC 25922 [2]; [Ab] 256 µg/mL, t=60): 151 | Glucose concentration t=90 (E. coli ATCC 25922 [2]; [Ab] 256 µg/mL, t=90): 140 | Glucose concentration t=105 (E. coli ATCC 25922 [2]; [Ab] 256 µg/mL, t=105): 135 | MIC EUCAST, range in parentheses [3, 9]: 0.125 to 1 µg/mL | MIC EUCAST [3, 10]: 0.25 to 0.5 µg/mL | Qualitative susceptibility score (S. aureus; S. aureus, 256 µg/mL, plated cultures, Table 6): susceptible | Glucose concentration t=15 (S. aureus; [Ab] 256 µg/mL, t=15): 137 | Glucose concentration t=30 (S. aureus; [Ab] 256 µg/mL, t=30): 139 | Glucose concentration t=45 (S. aureus; [Ab] 256 µg/mL, t=45): 131 | MIC EUCAST, range in parentheses [4, 9]: 0.25 to 1 µg/mL | MIC EUCAST [4, 10]: 0.5 µg/mL | MIC EUCAST, range in parentheses [5, 9]: 4 to 16 µg/mL | MIC EUCAST [5, 10]: 8 µg/mL | Qualitative susceptibility score (E. faecium [6]; E. faecium, 256 µg/mL, from positive BC-bottles, within 2 hours, Table 7): non-susceptible | Glucose concentration t=0 (E. faecium [6]; [Ab] 256 µg/mL, t=0): 144 | Glucose concentration t=45 (E. faecium [6]; [Ab] 256 µg/mL, t=45): 105 | Glucose concentration t=60 (E. faecium [6]; [Ab] 256 µg/mL, t=60): 77 | Glucose concentration t=75 (E. faecium [6]; [Ab] 256 µg/mL, t=75): 47 | Qualitative susceptibility score (E. coli ATCC 25922 [7]; E. coli ATCC 25922, 256 µg/mL, plated cultures, Table 6): susceptible | Glucose concentration t=15 (E. coli ATCC 25922 [7]; [Ab] 256 µg/mL, t=15): 156 | Glucose concentration t=30 (E. coli ATCC 25922 [7]; [Ab] 256 µg/mL, t=30): 155 | Glucose concentration t=45 (E. coli ATCC 25922 [7]; [Ab] 256 µg/mL, t=45): 136 | Qualitative susceptibility score (E. coli 17; E. coli 17, 256 µg/mL, plated cultures, Table 6): susceptible | Glucose concentration t=15 (E. coli 17; [Ab] 256 µg/mL, t=15): 131 | Glucose concentration t=30 (E. coli 17; [Ab] 256 µg/mL, t=30): 126 | Glucose concentration t=45 (E. coli 17; [Ab] 256 µg/mL, t=45): 123 | Qualitative susceptibility score (E. faecium [8]; E. faecium, 256 µg/mL, plated cultures, Table 6): non-susceptible | Glucose concentration t=0 (E. faecium [8]; [Ab] 256 µg/mL, t=0): 79 | Glucose concentration t=15 (E. faecium [8]; [Ab] 256 µg/mL, t=15): 47
